From patent US20250171419A1, “NOVEL NICOTINAMIDE PHOSPHORIBOSYLTRANSFERASE INHIBITORS AND USES THEREOF” (Heidelberg Pharma Research GmbH, priority 2023, published 2025)
Counter-ions that a name gives are not always drawn. Values belong to the compound of their own block, whether it stands above or below them.

Tests used:
[1] = Acid hydration stability (TFA, 37° C); type: physicochemical; settings: for tendency of cyanoguanidine group to hydration and degradation: pH values below 2, formation of guanylurea intermediates
Excerpt: Since the lysosomal pH is acidic and contains numerous hydrolases, NAMPT inhibitors bearing cyanoguanidines may therefore be degraded in the lysosome. […] The product was confirmed by mass spectrometry and NMR analysis. The inhibitor C42a was designed as an alternative to cyanoguanidine compounds containing urea as non-hydratable group.

[2] = system: human breast and lung cancer cell line-derived in vivo models; settings: cited from earlier work
solid tumors = settings: cited from earlier work
[3] = system: murine renal cell carcinoma model RENCA; settings: cited from earlier work
[4] = type: in vitro ADME, human
Procedure: The test compound was incubated at a concentration of 17.7 μM in a mixture of human liver lysosomal extract (tebu-bio, Seikisui Xenotech, Ref: H0610.L) and 1× catabolism buffer (tebu-bio, Seikisui Xenotech, Ref: K5200) for […] at 37° C. Samples were taken at 0, 2, 4, 24, 48, 72, 120, and 168 hours. Control samples without lysosomal extract were also set up under the same conditions as the test sample. All measurements and samples were taken in duplicate.
To measure the reaction, the compound was quenched by adding 380 μL of internal standard buffer (30 ng/mL of internal standard in ACN) to 20 μL of the sample. An amanitin-stable isotope-labelled analogue was used as the internal standard.
22 μL of the quenched sample was analysed using UPLC-MS-MS QTrap 5500 (Column: Waters ACQUITY UPLC BEH Amide, […], 2.1×100 mm, product code: 186004801). This assay was related to compound 113. Compound 113 was expected to be the main degradation compound after lysosomal enzymatic digestion and was used as a reference for the detection of catabolites after digestion in the HPLC-MS analysis.
The ion fragments detection method was multiple reaction monitoring (MRM). In this method, the mass is measured by a tandem mass spectrometer where the initial molecular ion is selected as initial mass. […]

L540 CD30+ cell line = test: Cytotoxicity in L540 CD30+ cell line, CellTiter-Glo 2.0 readout after 96 h; type: cell-based; settings: FIG. 10 C

SMILES: N#CNC(=Nc1ccncc1)NCCCCCCOc1ccc(Cl)cc1 [CHS-828, N-[6-(4-chlorophenoxy)hexyl]-N′-cyano-N″-4-pyridinyl-guanidine]
cytotoxic effects in vitro and in vivo [2]: highly cytotoxic effects | observed responses in the clinical trials (solid tumors): stable disease

SMILES: O=C(/C=C/c1cccnc1)NCCCCC1CCN(C(=O)c2ccccc2)CC1 [Daporinad, (E)-N-[4-(1-benzoylpiperidin-4-yl)butyl]-3-(pyrldine-3-yl)-acrylamide]
in vivo efficacy [3]: In vivo efficacy of daporinad was shown

SMILES: N#C/N=C(\NCCCCC1CCN(C(=O)c2cccc(N)c2)CC1)Nc1cccnc1 [compound 36, (E)-1-(4-(1-(3-aminobenzoyl)piperidin-4-yl)butyl)-2-cyano-3-(pyridin-3-yl)guanidine]
hydration of the cyanoguanidine moiety under acid pH ([1]; acid pH): undergoes hydration of the cyanoguanidine moiety to guanylurea | acid hydration reaction involving TFA, pH above 2 ([1]; pH values above 2, after 48 hours at 37° C): the reaction did not occur | acid hydration reaction involving TFA, pH below 2 ([1]; pH values below 2, within 24 hours at 37° C): guanylurea 113 was obtained in excellent yield | tendency of cyanoguanidine group to hydration and degradation [1]: tend towards hydration and degradation | degradation in the absence of lysosomal enzymes [4]: no degradation is observed | degradation versus generation of the hydrated product 113 [4]: inversely correlates

SMILES: NC(=O)/N=C(\NCCCCC1CCN(C(=O)c2cccc(N)c2)CC1)Nc1cccnc1 [compound 113, (E)-1-(((4-(1-(3-aminobenzoyl)piperidin-4-yl)butyl)amino)(pyridin-3-ylamino)methylene)urea]
toxicity in L540 cells compared to inhibitor 36 (L540 CD30+ cell line): significantly reduced toxicity

Results, then the compound that gave them:

tendency of cyanoguanidine group to hydration and degradation [1]: tend towards hydration and degradation
SMILES: N#C/N=C(\NCCCCC1(O)CCN(C(=O)c2cccc(N)c2)CC1)Nc1cccnc1 [C22a, (E)-1-(4-(1-(3-aminobenzoyl)-4-hydroxypiperidin-4-yl)butyl)-2-cyano-3-(pyridin-3-yl)guanidine]

time stable under the conditions that triggered the hydration of 36 ([1]; identical conditions as those that triggered the hydration of 36): more than 2 weeks | hydration at pH values below 2 ([1]; pH values below 2 at 37° C for more than 2 weeks): no hydration
SMILES: Nc1cccc(C(=O)N2CCC(O)(CCCCNC(=O)N3Cc4ccccc4C3)CC2)c1 [C42a, N-(4-(1-(3-aminobenzoyl)-4-hydroxypiperidin-4-yl)butyl)isoindoline-2-carboxamide TFA salt]
